# From ChEMBL document CHEMBL4138213, “Synthesis and biological characterization of ubenimex-fluorouracil conjugates for anti-cancer therapy” (Eur J Med Chem, 2018)
# pIC50: −log10 of the molar value. Calls of active or inactive are those of the source. The rule behind the calls is not given here.
# Legend:
# PLC-PRF-5 [1] = assay: Antiproliferative activity against human PLC/PRF/5 cells after 48 hrs by MTT assay; settings: PLC-PRF-5, 48 h
# Aminopeptidase N = target: T1, Aminopeptidase N (Sus scrofa, UniProt P15145); assay: Inhibition of porcine kidney CD13 using L-leucine-p-nitroanilide as substrate preincubated for 5 mins followed by substrate addition measured after 30 mins
# T1 sequence (P15145 whole entry): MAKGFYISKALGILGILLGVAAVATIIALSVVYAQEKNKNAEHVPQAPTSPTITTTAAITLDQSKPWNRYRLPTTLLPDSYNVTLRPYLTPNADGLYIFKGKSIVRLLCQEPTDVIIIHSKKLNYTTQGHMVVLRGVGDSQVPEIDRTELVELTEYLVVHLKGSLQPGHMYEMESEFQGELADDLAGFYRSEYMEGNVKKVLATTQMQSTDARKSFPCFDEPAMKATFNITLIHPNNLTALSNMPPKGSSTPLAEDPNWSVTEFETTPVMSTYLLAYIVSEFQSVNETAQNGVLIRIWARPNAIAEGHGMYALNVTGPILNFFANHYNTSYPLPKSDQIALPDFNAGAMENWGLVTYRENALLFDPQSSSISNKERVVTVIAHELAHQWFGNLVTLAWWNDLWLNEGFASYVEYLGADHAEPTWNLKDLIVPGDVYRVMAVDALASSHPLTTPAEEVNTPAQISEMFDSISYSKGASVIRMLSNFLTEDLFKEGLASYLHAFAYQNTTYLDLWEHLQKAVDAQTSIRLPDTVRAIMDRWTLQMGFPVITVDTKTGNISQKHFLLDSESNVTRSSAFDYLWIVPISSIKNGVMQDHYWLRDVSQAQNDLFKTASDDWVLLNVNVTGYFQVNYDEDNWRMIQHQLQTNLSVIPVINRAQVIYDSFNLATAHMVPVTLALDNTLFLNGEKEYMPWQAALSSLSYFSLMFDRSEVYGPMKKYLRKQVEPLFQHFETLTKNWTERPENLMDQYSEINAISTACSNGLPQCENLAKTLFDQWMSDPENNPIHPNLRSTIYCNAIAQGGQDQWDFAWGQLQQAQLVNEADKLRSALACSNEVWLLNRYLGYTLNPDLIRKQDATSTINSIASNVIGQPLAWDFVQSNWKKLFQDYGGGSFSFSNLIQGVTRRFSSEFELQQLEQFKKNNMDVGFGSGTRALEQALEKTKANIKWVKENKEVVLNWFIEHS
# cells = settings: Homo sapiens, ES-2, 48 h
# Description: Antiproliferative activity against human ES2 cells after 48 hrs by MTT assay
# [2] = Volume of distribution during elimination phase in Wistar rat at 80 mg/kg, iv after 0.05 to 24 hrs by HPLC-MS/MS analysis; assay type: ADME, organism-based; settings: in vivo, read-out: Vz
# [3] = Drug metabolism in Wistar rat plasma assessed as carboxylesterase-mediated 5-FU formation at 80 mg/kg, iv by HPLC-MS/MS analysis; assay type: ADME, organism-based; settings: in vivo
# Rattus norvegicus [4] = assay: MRT (0 to infinity) in Wistar rat at 80 mg/kg, iv after 0.05 to 24 hrs by HPLC-MS/MS analysis; assay type: ADME, organism-based; settings: in vivo
# PLC-PRF-5 [5] = assay: Induction of apoptosis in human PLC/PRF/5 cells assessed as necrotic cells at 20 uM after 48 hrs by annexin-V-FITC/propidium iodide staining-based flow cytometric method (reference value: 0.106%); assay type: functional
# [6] = Antiproliferative activity against human H7402 cells after 48 hrs by MTT assay; settings: H7402, 48 h
# PLC-PRF-5 [7] = assay: Induction of apoptosis in human PLC/PRF/5 cells assessed as early apoptotic cells at 20 uM after 48 hrs by annexin-V-FITC/propidium iodide staining-based flow cytometric method (reference value: 5.82%); assay type: functional
# H22 [8] = assay: Antitumor activity against […] cells xenografted in iv dosed mouse administered 5 days per week for 2 weeks; assay type: functional, organism-based
# HepG2 = assay: cells; settings: Homo sapiens, HepG2, 48 h
# [9] = Cmax in Wistar rat at 80 mg/kg, iv after 0.05 to 24 hrs by HPLC-MS/MS analysis; assay type: ADME, organism-based; set-up: dose 80 mg/kg, route intravenous; settings: in vivo
# A549 = assay: Antiproliferative activity against human A549 cells after 48 hrs by MTT assay; settings: A549, 48 h
# PLC-PRF-5 [10] = assay: Induction of apoptosis in human PLC/PRF/5 cells assessed as viable cells at 20 uM after 48 hrs by annexin-V-FITC/propidium iodide staining-based flow cytometric method (reference value: 93.7%); assay type: functional; settings: PLC-PRF-5, 48 h, read-out: Activity
# [11] = Drug metabolism in Wistar rat plasma assessed as carboxylesterase-mediated 2-((S)-2-((2S,3R)-3-amino-2-hydroxy-4-phenylbutanamido)-4-methylpentan-amido)-acetic acid formation at 80 mg/kg, iv by HPLC-MS/MS analysis; assay type: ADME, organism-based; settings: in vivo
# U-937 = assay: cells; settings: Homo sapiens, U-937, 48 h
# Description: Antiproliferative activity against human U937 cells after 48 hrs by MTT assay
# PLC-PRF-5 [12] = assay: Downregulation of CD13 expression in human PLC/PRF/5 cells at 10 uM after 48 hrs by flow cytometric method; assay type: functional, cell-based
# HCT-116 = assay: cells; settings: Homo sapiens, HCT-116, 48 h
# Thoracic aorta = assay: Antiangiogenic activity in Wistar rat thoracic aorta ring assessed as inhibition of microvessels sprouting at 20 ug/ml treated every other day for 9 days; assay type: functional, tissue-based
# [13] = Drug metabolism in human plasma assessed as 5-FU formation at 4 mg/ml after 8 hrs by HPLC method; assay type: ADME, cell-free
# U-266 = assay: Antiproliferative activity against human U266 cells after 48 hrs by MTT assay; settings: U-266, 48 h
# Mus musculus [14] = assay: Toxicity in Kunming mouse xenografted with 5-FU-resistant […] H22 cells assessed as mortality at 82 mg/kg, iv after 14 days; assay type: organism-based; settings: in vivo, 336 h
# [15] = Drug metabolism in Wistar rat plasma assessed as peptidase-mediated ubenimex formation at 80 mg/kg, iv by HPLC-MS/MS analysis; assay type: ADME, organism-based; settings: in vivo
# PLC-PRF-5 [16] = assay: Induction of reactive oxygen species formation in human PLC/PRF/5 cells at 10 uM by DCF-DA staining-based flow cytometric method; assay type: functional, cell-based; settings: TDE = time-dependent effect
# Mus musculus [17] = assay: Toxicity in Kunming mouse xenografted with 5-FU-resistant […] H22 cells assessed as body weight loss at 82 mg/kg, iv measured for 14 days during compound dosing; assay type: organism-based; settings: in vivo, 336 h
# [18] = Apparent clearance in Wistar rat at 80 mg/kg, iv after 0.05 to 24 hrs by HPLC-MS/MS analysis; assay type: ADME, organism-based; settings: in vivo, read-out: CL(app) (converted)
# [19] = AUC (0 to infinity) in Wistar rat at 80 mg/kg, iv after 0.05 to 24 hrs by HPLC-MS/MS analysis; assay type: ADME, organism-based; set-up: dose 80 mg/kg, time infinity, route intravenous; settings: in vivo
# H22 [20] = assay: Antimetastatic activity in […] cells xenografted in iv dosed mouse assessed as decrease in lung metastasis nodus number administered 5 days followed by 2 days of withdrawal; assay type: functional, organism-based
# PLC-PRF-5 [21] = assay: Induction of apoptosis in human PLC/PRF/5 cells assessed as late apoptotic cells at 20 uM after 48 hrs by annexin-V-FITC/propidium iodide staining-based flow cytometric method (reference value: 0.341%); assay type: functional
# H22 [22] = assay: Antitumor activity against 5-FU-resistant […] cells xenografted in Kunming mouse at 82 mg/kg, iv after 14 days; assay type: functional, organism-based
# Rattus norvegicus [23] = assay: VRT (0 to infinity) in Wistar rat at 80 mg/kg, iv after 0.05 to 24 hrs by HPLC-MS/MS analysis; assay type: ADME, organism-based; settings: in vivo
# PLC-PRF-5 [24] = assay: Anticlonogenic activity against human PLC/PRF/5 cells after 2 weeks by Giemsa staining-based inverted microscopic method; assay type: functional, cell-based
# Rattus norvegicus [25] = assay: Terminal Half life in Wistar rat at 80 mg/kg, iv after 0.05 to 24 hrs by HPLC-MS/MS analysis; assay type: ADME, organism-based; settings: in vivo
# Homo sapiens = species: Homo sapiens; assay: Antiinvasive activity in human ES2 cells at 5 ug/ml after 24 hrs by transwell assay; assay type: functional, cell-based
smiles,measurement,setting,value
CC(C)C[C@H](NC(=O)[C@@H](O)[C@H](N)Cc1ccccc1)C(=O)NCCCCCC(=O)OCn1cc(F)c(=O)[nH]c1=O,pIC50,PLC-PRF-5 [1],4.22
same,pIC50,Aminopeptidase N,5.74
same,pIC50,cells,3.98
CC(C)C[C@H](NC(=O)[C@@H](O)[C@H](N)Cc1ccccc1)C(=O)NCC(=O)OCn1cc(F)c(=O)[nH]c1=O.Cl,Vd,[2],6.23 L/kg
same,Drug metabolism,[3],Metabolite_Detected
same,MRT,Rattus norvegicus [4],2.576 h
same,Activity,PLC-PRF-5 [5],0%
same,pIC50,[6],4.70
same,Activity,PLC-PRF-5 [7],24.2%
same,Activity,H22 [8],Dose-dependent effect
same,pIC50,PLC-PRF-5 [1],4.78
same,pIC50,HepG2,4.85
same,Cmax,[9],5870 ng/mL
same,pIC50,A549,4.82
same,viability at 20 µM,PLC-PRF-5 [10],71.1%
same,Drug metabolism,[11],Metabolite_Detected
same,pIC50,Aminopeptidase N,6.74
same,pIC50,U-937,4.99
same,Activity,PLC-PRF-5 [12],Active
same,pIC50,HCT-116,4.59
same,Activity,Thoracic aorta,Active
same,Drug metabolism,[13],Metabolite_Detected
same,pIC50,U-266,4.50
same,pIC50,cells,4.63
same,Activity,Mus musculus [14],Non-Toxic
same,Drug metabolism,[15],Metabolite_Detected
same,Activity,PLC-PRF-5 [16],Tde
same,Activity,Mus musculus [17],Non-Toxic
same,clearance,[18],90.5 mL/min/kg
same,AUC(0-inf),[19],14700 ng·h/mL
same,Activity,H22 [20],Dose-dependent effect
same,Activity,PLC-PRF-5 [21],4.69%
same,Activity,H22 [22],Active
same,VRT,Rattus norvegicus [23],4.423 hr2
same,Activity,PLC-PRF-5 [24],Dose-dependent effect
same,beta t1/2,Rattus norvegicus [25],0.795 h
same,Activity,Homo sapiens,Active
